Literature values, collected in patent US9463189B2 (BPV Holdings, LLC, priority 2007, dated 2016).
Structures can show the parent of a compound that is named as a salt.

What was measured:
[1] = system: PPAR; details: shown in US2006/0167012A1 and US2006/0205736A1; cited from earlier work
[2] = system: methionine- and choline-deficient diet model of NASH; details: Nagasawa T et al., Eur. J. Pharmacol. (2006); cited from earlier work
[3] = system: genetically obese rodent model; details: Gary-Bobo, M. et al., Hepatology 2007; cited from earlier work

For `C[C@@H]1CN(c2ccc(OC(F)(F)F)cc2)C[C@H](C)N1S(=O)(=O)c1cccc2c1C[C@@H](C(=O)O)C2` [Compound 1, (S)-4-[cis-2,6-Dimethyl-4-(4-trifluoromethoxy-phenyl)-piperazine-1-sulfonyl]-indan-2-carboxylic acid tosylate], the PPAR modulator activity [1] is listed as “PPAR modulators”.

In the case of `Cc1cc(SCc2sc(-c3ccc(C(F)(F)F)cc3)nc2C)ccc1OCC(=O)O` [GW501516], the “fatty acid β-oxidation” value [2] is listed as “increased”, the hepatic steatosis [2] is listed as “improved hepatic steatosis” and the hepatic triglyceride deposition [2] is listed as “decreased”. For the same compound, the inflammation [2] was “decreased”, the “inflammatory cytokines or chemokines” value [2] was “decreased” and the “number of activated hepatic stellate cells” value [2] was “decreased”.

For `Cc1c(C(=O)NN2CCCCC2)nn(-c2ccc(Cl)cc2Cl)c1-c1ccc(Cl)cc1` [rimonabant], the “outcome in genetically obese rodent model” value [3] is listed as “positive outcome”.
